Series [1] can be described thus: Bovine liver microsome stability. Type of series: in vitro ADME. The following applies: intrinsic clearance. As for the experimental part: 2.2 Microsomal stability studies […]
(b) Bovine liver microsome stability. Test compounds (0.5 µM) were incubated with 0.5 mg/mL bovine liver microsomes (Xenotech LLC TM) in 50 mM potassium phosphate buffer, pH7.4 and the reaction initiated upon addition of excess NADPH (8 mg/mL in 50 mM potassium phosphate buffer, pH7.4).
Aliquots (50 µL) of the incubation mixture were taken at time zero, 3, 6, 9, 15 and 30 min then mixed with acetonitrile (100 µL) to stop the reaction. An internal standard was added to all samples, prior to centrifugation (10 min, 1,665 g, RT) to sediment precipitated protein. Reaction plates were then sealed prior to UPLCMSMS analysis using a Quattro Premier XE (Waters corporation, USA).
XLfit (IDBS, UK) was used to calculate the exponential decay and consequently the rate constant (k) from the ratio of peak area of test compound to internal standard at each timepoint. The rate of intrinsic clearance (CLi) of each test compound was then calculated using the following […]
CLi(mL/min/g liver) = k x V x microsomal protein yield
Where V (mL/mg protein) is the incubation volume/ mg protein added and microsomal protein yield is taken as 52.5 mg protein/ g of liver. Verapamil (0.5 µM) was used as a positive control to confirm acceptable assay performance. […]
A general note: Microsomes from liver hold many membrane-bound enzymes, among them those of drug oxidation.

A further series concerns T. congolense. Kind of series: NMRI mouse efficacy model, T. congolense. The following applies: for Efficacy, T. congo / Efficacy at 10 mg/kg SC for 4 days, T. congo: mice; for Efficacy at 10 mg/kg SC for 4 days, T. congo: 10 mg/kg SC once daily for 4 days. Type of series: in vivo, Trypanosoma congolense. On the procedure: 3. In vivo efficacy studies
The T. congolense (IL3000) and T. vivax (ILRAD V34) cell lines7, 8, both originating from Kenya, were used in the following in vivo mouse studies. For studies in cattle, either Trypanosoma congolense (savannah) KONT 2/133, 224) or T. vivax STIB 719 was used.
3.1 Mouse efficacy studies for T. brucei brucei.
Mouse efficacy studies for T. brucei brucei were carried out as previously detailed.9 3.2 NMRI mouse efficacy studies for T. congolense and T. vivax.
Mouse models of infections were carried out using standardized protocols. Briefly, 1 mL samples of cryopreserved T. congolense, or T. vivax-infected blood harvested directly from an infected mouse, were diluted with Hanks Balanced Salt Solution plus 20 mM glucose (HBSS+G) to 5 x 10^4 trypomastigotes/mL (5 x 105 for T. vivax). Female mice (NMRI) were inoculated IP on day 0 with 0.2 mL/animal (equivalent to ~ 1 x 104 T. congolense or ~ 1 x 105 T. vivax per animal). The level of parasitaemia was inspected microscopically on day 3 using tail blood smears, counting 20 high powered fields (× 400 magnification). For untreated or treated animals whose tail smears exceeded 50 parasites/field, precise parasite levels were established using a Neubauer haemocytometer; mice with a parasite burden over 1 x 108 were promptly and humanely terminated (T. congolense only, from our experience the mice will not survive for a further 24 h). Alternatively, in the case of T. vivax-infected mice the immune system will bring the infection to a sub-lethal level (below limit of detection) […]
followed by cycles of high and low parasitaemia. Eventually mice infected with T. vivax succumb to the infection between 30 – 60 days post-infection.
Suppression of parasitaemia - mouse
On day 3 post-infection, animals were randomly allocated to groups, with 3 mice/group. Infected animals were dosed with one of the following: diaminazene diaceturate IP. – 40 mg/kg once only as a control (early-stage trypanocide used to clear the parasites in the systemic circulation and in tissues other than CNS), compound 1 (SC) at 3, 10, 30 and 50 mg free base/kg twice and once daily for 4 d or a single dose, or compound 2 (SC) at 3 and 10 mg free base /kg once daily for 4 d, once daily for 2 d or a single dose, one group of 3 mice acted as an untreated control group. The dose solutions were prepared daily, using 5% DMSO: 40% PEG400: 55% MilliQ H2O for test compounds and 10% DMSO: 90% peanut oil for standard drugs. Alternatively, compound 2 was delivered for 48 h via SC implanted ALZET osmotic pumps (6, 12, 25 and 50 mg free base/mL, vehicle: 50% DMSO […]
and 50% deionized water).
Response to treatment was determined by monitoring parasitaemia twice a week until day 21.
After day 21, the mice were checked once a week until 63 d post-treatment. Mice surviving to the end of the experiment, and with blood smears clear of parasites, were considered cured. […]
The parasites were obtained from a donor calf. This isolate is resistant to diminazene (20 mg/kg) and isometamidium (1 mg/kg) in cattle, and diminazene (7 mg/kg) and isometamidium (>1 mg/kg) in mice. Calves were parasitaemic by study day 6. Calves (n = 5) were treated with compound 1 (5 mg/kg, SC, twice 12 h apart) on study

A short description of series [2]: PK in female NMRI mice, SC. Type of series: in vivo, mouse. As for the experimental part: 2.5 PK and maximum tolerated dose - mouse
PK studies in female NMRI mice (Figure S1): Test compounds 1, 2 and 10 were dosed SC at 10 mg free base/kg (dose volume 10 mL/kg; dose vehicle: 5% (v/v) DMSO, 40% polyethylene glycol 400 (PEG400) and 55% deionized water) to female NMRI mice (n = 3). Blood samples (10 μL) were taken from each mouse at 0.08, 0.25, 0.5, 1, 2, 4, 6, 8 h post dose (24 h post dose for compounds 2 and 10 only) and mixed with two volumes of deionized water (20 μL). Alternatively, compound 2 was delivered for 48 h via SC implanted ALZET osmotic pumps (10, 25 and 50 mg free base/mL, vehicle: 50% DMSO and 50% deionized water) to the female NMRI mouse (n = 3). Blood samples (10 μL) from each mouse were taken at 1, 3, 6, 24, 30 and 48 h post-dose and mixed with two volumes of deionized water (20 μL). […]

The nature of series [3]: Aqueous kinetic solubility by laser nephelometry. The conditions noted are these: MilliQ water with 2.5% DMSO, read-out: Sol (kinetic solubility); for solubility kinetic at 24 h: pH 7.4, range 250-12 µM. Type of series: physicochemical. As for the experimental part:
2. Drug metabolism and pharmacokinetics
The aqueous solubility of test compounds was measured using laser nephelometry. Compounds were subject to serial dilution from 10 mM to 0.5 mM in DMSO. Aliquot were then mixed with MilliQ water to obtain an aqueous dilution plate with a final concentration range of 250 – 12 µM. The final DMSO concentration in these plates was 2.5%. Triplicate aliquots were transferred to a flat-bottomed polystyrene plate which was immediately read on a NEPHELOstar nephelometer (BMG Lab Technologies). The laser scatter caused by insoluble particulates (relative nephelometry units, RNU) was plotted against compound concentration using a segmental regression fit, with the point of inflection being quoted as the compound’s aqueous solubility (µM).
Solubility of compound 1 was measured by a different method. Here, compound 1 was dissolved in DMSO to give a 10 mM solution and solubility test samples prepared by adding a volume (5 µL) of this stock solution to phosphate buffered saline, pH 7.4 (195 µL, Sigma-Aldrich). This

≈ marks a conversion by molar mass, not a printed value. Where “and” joins values, the source holds several entries; their conditions need not be identical. Equal entries are not always repeated. Entries after “also recorded” stand apart in the source; their conditions may differ.

Usually bioavailability stands for the share of a dose that reaches the circulation, judged against a reference dose that is usually intravenous. Higher therefore signals good availability. As a reminder, the kinetic solubility is the concentration staying in solution when a stock, usually in DMSO, is diluted into the medium. For orientation: Cmax means the peak of the concentration-time curve.

For `CC(C)CS(=O)(=O)N[C@H]1CC[C@H](Nc2nc(N)c(C(=O)c3c(F)cccc3F)s2)CC1` [Compound 1, N-((trans)-4-((4-Amino-5-(2,6-difluorobenzoyl)thiazol-2-yl)amino)cyclohexyl)-2-methylpropane-1-sulfonamide], in series [1], the “Bovine Microsome Cli (BLM: bovine microsomal clearance)” value (“Bovine Microsome Cli” for short) was <0.5 / 0.5 mL/min/g and <0.5 mL/min/g. The “Acute T. congolense efficacy in mice” value was “Partial cure (2/3)” with T. congolense (3 mg/kg bid SC for 4 days); “Full cure” in the series with T. congolense (10 mg/kg bid SC for 4 days); “Partial cure: (2/3)” in the series with T. congolense (30 mg/kg, single dose, SC); “sterile cure; also recorded: Full cure” with T. congolense (50 mg/kg single dose, SC). Besides, in the series with T. congolense (10 mg/kg once daily for 4 days, SC), the “T. congolense efficacy in mice” value is on record as “sterile cure”. Further, the bioavailability at 8 h in series [2] (mouse, whole blood, 10 mg/kg SC) was 74%. The half-life at 8 h in series [2] (mouse, whole blood, 10 mg/kg SC, read-out: T½) turned out to be 1 h. For the same molecule, in series [2] (mouse, whole blood, 10 mg/kg SC, read-out: T½ (converted)), the half-life was about 1 h.
With `CC(C)CS(=O)(=O)N[C@H]1CC[C@H](Nc2nc(N)c(C(=O)c3c(F)cc(CN(C)C)cc3F)s2)CC1` [Compound 2, N-(trans)-[4-[[4-Amino-5-[4-(dimethylaminomethyl)-2,6-difluoro-benzoyl]thiazol-2-yl]amino]cyclohexyl]-2-methyl-propane-1-sulfonamide], the solubility (kinetic) at 24 h in series [3] was 250 µM (≈ 132 µg/mL). The “Bovine Microsome Cli” value in series [1] came out at 1.1 mL/min/g. In the series on T. congolense (SC pump delivery, all dose levels), the “Efficacy in T. congolense-infected mice, implanted ALZET osmotic pumps” value is listed as “cured; also recorded: full cure”. Further, the “Efficacy, T. congo” value was “Partial cure (2/3)” with T. congolense (3 mg/kg (head: SC for 4 days)); “Partial cure (2/3)” with T. congolense (10 mg/kg once daily for 2 days); “Full cure” in the series with T. congolense (10 mg/kg, regimen not restated, listed after the 3 mg/kg result). The “Efficacy at 10 mg/kg SC for 4 days, T. congo” value with T. congolense (10 mg/kg) is recorded as “fully curative; also recorded: Full cure; also recorded: Partial cure (1/3)”. In series [2] (mouse, blood, 10 mg/kg, single SC 10 mg free base/kg), the Cmax amounted to 818 ng/mL. Besides, in series [2] (mouse, blood, 10 mg/kg, single SC 10 mg free base/kg, read-out: AUC0-24 (converted)), the AUC(0-t) was 2160 ng·h/mL. The concentration at 8 h in series [2] (mouse, blood, single SC 10 mg free base/kg, read-out: Cmin (8 h)) is 10 ng/mL. The molecule also returned a Cav in series [2] (single SC 10 mg free base/kg) of 78 ng/mL.
Turning to `CNCc1cc(F)c(C(=O)c2sc(N[C@H]3CC[C@H](NS(=O)(=O)CC(C)C)CC3)nc2N)c(F)c1.Cl` [Compound 8, N-((trans)-4-((4-Amino-5-(2,6-difluoro-4-((methylamino)methyl)benzoylthiazol-2-yl)amino)cyclohexyl))-2-methylpropane-1-sulfonamide Hydrochloride], the solubility (kinetic) in series [3] (range 250-12 µM) is over 250 µM. Besides, in series [1], the “Bovine Microsome Cli” value came out at 0.5 mL/min/g. Besides, the “Efficacy at 10 mg/kg SC for 4 days, T. congo” value in the series with T. congolense is recorded as “Full cure (3/3)”.
`CC(C)CS(=O)(=O)N[C@H]1CC[C@H](Nc2nc(N)c(C(=O)c3c(Cl)cccc3Cl)s2)CC1` [Compound 10, N-((trans)-4-((4-Amino-5-(2,6-dichlorobenzoyl)thiazol-2-yl)amino)cyclohexyl)-2-methylpropane-1-sulfonamide]: the solubility (kinetic) at 24 h in series [3] came to 53 µM (≈ 26.8 µg/mL). Further, in series [1], the “Bovine Microsome Cli” value turned out to be 1.6 mL/min/g. In addition, the “Efficacy, T. congo” value in the series on T. congolense (3 mg/kg (head: SC for 4 days)) is “Full cure (3/3) 3 mg/kg”.
